# According to patent US20250115598A1 (Anaxis Pharma Pty Ltd, priority 2021, published 2025):
# Key:
# endogenous MLKL in U937 = endogenous MLKL in U937 (Homo sapiens (Human), UniProt Q8NB16); test: Degradation assay: endogenous MLKL in U937 (western blot); details: U937, 24 h incubation, read-out: Degradation of endogenous MLKL in U937 (DC50 cell-based assay)
# Summary of the method: (§1)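 MDF (seeded the day before) or U937 cells were treated 24 h at 37 °C, 10% CO2 with compound at 10, 2, 0.4, 0.08 and 0.016 μM final. Endogenous MLKL was quantified by western blot (anti-MLKL 3H1), normalized to GAPDH. Percent degradation was taken relative to DMSO control.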
# endogenous MLKL in MDF = endogenous MLKL in MDF (Mus musculus (Mouse), UniProt Q9D2Y4); test: Degradation assay: endogenous MLKL in MDF (western blot); details: MDF cells, 24 h incubation with compound, MLKL adjusted for loading with GAPDH, normalized to DMSO only control, read-out: Degradation of endogenous MLKL in MDF (DC50 cell-based assay)
# endogenous MLKL in MDF, sequence (Q9D2Y4 whole entry): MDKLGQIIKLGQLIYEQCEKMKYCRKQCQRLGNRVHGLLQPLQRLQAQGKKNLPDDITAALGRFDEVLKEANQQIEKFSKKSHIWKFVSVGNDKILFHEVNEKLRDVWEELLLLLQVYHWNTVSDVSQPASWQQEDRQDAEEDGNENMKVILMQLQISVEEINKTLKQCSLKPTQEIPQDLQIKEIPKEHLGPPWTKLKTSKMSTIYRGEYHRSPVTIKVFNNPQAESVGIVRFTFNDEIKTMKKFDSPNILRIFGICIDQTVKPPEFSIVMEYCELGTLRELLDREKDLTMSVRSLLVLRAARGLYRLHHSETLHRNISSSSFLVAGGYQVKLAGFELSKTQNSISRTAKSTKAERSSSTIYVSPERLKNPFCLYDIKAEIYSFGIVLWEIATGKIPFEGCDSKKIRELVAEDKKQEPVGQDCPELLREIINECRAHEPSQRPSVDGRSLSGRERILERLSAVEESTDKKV
# Summary of the method: as §1
# [1] = test system: Immortalised Mouse Dermal Fibroblasts (MDFs); test: Cellular assay: inhibition of TSI induced necroptosis, CellTitre-Glo viability; details: Mus musculus, Fibroblast; MDF, 3 hours TSI cocktail, Table 27; read-out: Inhibition of TSI-induced necroptosis (IC50 cell-based assay) in MDF
# Summary of the method: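 Immortalised mouse dermal fibroblasts (2200 cells/well) pretreated 30 min with compound, 10-point 1:3 series from 36 μM, 0.3% DMSO. Then 3 h at 37° C. with TNF (100 ng/ml), Smac mimetic (500 nM) and IDN-6556 (10 μM). CellTiter-Glo luminescence normalised to DMSO (100%) and DMSO+TSI (0%); IC50 from 4-parameter logistic fit.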
# human MLKL (full length) = human MLKL (full length) (Homo sapiens (Human), UniProt Q8NB16); test: KINOMEscan binding assay, human MLKL (full length); details: hMLKL, Table 25; read-out: MLKL (KD)
# human MLKL (full length), sequence (Q8NB16 whole entry, the tested form may be a part): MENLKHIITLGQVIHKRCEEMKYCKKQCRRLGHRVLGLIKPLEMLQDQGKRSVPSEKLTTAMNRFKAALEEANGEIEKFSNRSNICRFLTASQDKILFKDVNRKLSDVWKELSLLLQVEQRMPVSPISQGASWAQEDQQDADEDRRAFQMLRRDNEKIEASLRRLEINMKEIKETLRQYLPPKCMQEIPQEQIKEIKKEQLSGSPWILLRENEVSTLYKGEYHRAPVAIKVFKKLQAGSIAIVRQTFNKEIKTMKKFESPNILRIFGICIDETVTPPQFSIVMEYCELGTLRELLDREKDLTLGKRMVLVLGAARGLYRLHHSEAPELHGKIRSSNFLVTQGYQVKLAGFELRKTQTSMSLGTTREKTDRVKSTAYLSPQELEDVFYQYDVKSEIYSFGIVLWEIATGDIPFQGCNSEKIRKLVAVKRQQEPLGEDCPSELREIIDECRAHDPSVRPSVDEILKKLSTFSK
# Summary of the method: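 Active-site competition binding: DNA-tagged kinase (T7 phage fusion from BL21-derived E. coli lysate, or HEK-293-expressed) captured on immobilized-ligand beads, with bound kinase in the eluate quantified by qPCR. Compounds ran as 11-point 3-fold dilutions, 1% DMSO, top 30,000 nM for most. Kd came from a Hill fit (slope −1).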
# endogenous MLKL in U937, sequence (Q8NB16 whole entry): as the sequence (Q8NB16 whole entry, the tested form may be a part) above
SMILES,DC50 (endogenous MLKL in U937) [nM],DC50 (endogenous MLKL in MDF) [nM],Kd (human MLKL (full length)) [nM],IC50 [1] [nM]
"C[C@H](Oc1cc(-c2nn(C)c3c(-c4cnn(C5CCN(C(=O)[C@H]6CC[C@H](Nc7cccc8c7C(=O)N(C7CCC(=O)NC7=O)C8=O)CC6)CC5)c4)cnc(N)c23)ccc1NS(=O)(=O)C(F)F)c1ccc(F)cc1 (stereo partly drawn) [Compound 1058, N-{4-[4-amino-1-methyl-7-(1-{1-[(trans)-4-{[2-(2,6-dioxopiperidin-3-yl)-1,3-dioxo-2,3-dihydro-1H-isoindol-4-yl]amino}cyclohexane-carbonyl]piperidin-4-yl}-1H-pyrazol-4-yl)-1H-pyrazolo[4,3-c]pyridin-3-yl]-2-[(1S)-1-(4-fluorophenyl)ethoxy]phenyl}-1,1-difluoromethanesulfonamide]",1000 to 10000,< 1000,10 to 1000,< 1000
"Cc1ncsc1-c1ccc(CNC(=O)[C@@H]2C[C@@H](O)CN2C(=O)[C@@H](NC(=O)C2(F)CC2)C(C)(C)C)c(OCCCCCn2cc(-c3cnc(N)c4c(-c5ccc(NS(=O)(=O)C(F)F)c(O[C@@H](C)c6ccc(F)cc6)c5)nn(C)c34)cn2)c1 [Compound 1068, (2S,4R)-N-[(2-{[5-(4-{4-amino-3-[4-(difluoromethanesulfonamido)-3-[(1S)-1-(4-fluorophenyl)ethoxy]phenyl]-1-methyl-1H-pyrazolo[4,3-c]pyridin-7-yl}-1H-pyrazol-1-yl)pentyl]oxy}-4-(4-methyl-1,3-thiazol-5-yl)phenyl)methyl]-1-[(2S)-2-[(1-fluorocyclopropyl)formamido]-3,3-dimethylbutanoyl]-4-hydroxypyrrolidine-2-carboxamide]",1000 to 10000,< 1000,10 to 1000,1000 to 10000
"C[C@H](Oc1cc(-c2nn(C)c3c(-c4cnn(C5CCN(C(=O)C6CC7(CCN(c8cccc9c8C(=O)N(C8CCC(=O)NC8=O)C9=O)CC7)C6)CC5)c4)cnc(N)c23)ccc1NS(=O)(=O)C(F)F)c1ccc(F)cc1 (stereo partly drawn) [Compound 1069, N-(4-{4-amino-7-[1-(1-{7-[2-(2,6-dioxopiperidin-3-yl)-1,3-dioxo-2,3-dihydro-1H-isoindol-4-yl]-7-azaspiro[3.5]nonane-2-carbonyl}piperidin-4-yl)-1H-pyrazol-4-yl]-1-methyl-1H-pyrazolo[4,3-c]pyridin-3-yl}-2-[(1S)-1-(4-fluorophenyl)ethoxy]phenyl)-1,1-difluoromethanesulfonamide]",< 1000,< 1000,10 to 1000,< 1000
"C[C@H](Oc1cc(-c2nn(C)c3c(-c4cnn(C5CCN(C(=O)COC6CCN(c7cccc8c7C(=O)N(C7CCC(=O)NC7=O)C8=O)CC6)CC5)c4)cnc(N)c23)ccc1NS(=O)(=O)C(F)F)c1ccc(F)cc1 (stereo partly drawn) [Compound 1072, N-{4-[4-amino-7-(1-{1-[2-({1-[2-(2,6-dioxopiperidin-3-yl)-1,3-dioxo-2,3-dihydro-1H-isoindol-4-yl]piperidin-4-yl}oxy)acetyl]piperidin-4-yl}-1H-pyrazol-4-yl)-1-methyl-1H-pyrazolo[4,3-c]pyridin-3-yl]-2-[(1S)-1-(4-fluorophenyl)ethoxy]phenyl}-1,1-difluoromethane-sulfonamide]",< 1000,< 1000,< 10,1000 to 10000
"C[C@H](Oc1cc(-c2nn(C)c3c(-c4cnn(C5CCN(C(=O)CC6CCCN(c7cccc8c7C(=O)N(C7CCC(=O)NC7=O)C8=O)C6)CC5)c4)cnc(N)c23)ccc1NS(=O)(=O)C(F)F)c1ccc(F)cc1 (stereo partly drawn) [Compound 1073, N-[4-(4-amino-7-{1-[1-(2-{1-[1,3-dioxo-2-(2-oxo-piperidin-3-2,3-yl)-dihydro-1H-isoindol-4-yl]piperidin-3-yl}acetyl)piperidin-4-yl]-1H-pyrazol-4-yl}-1-methyl-1H-pyrazolo[4,3-c]pyridin-3-yl)-2-[(1S)-1-(4-fluorophenyl)ethoxy]phenyl]-1,1-difluoromethanesulfonamide]",< 1000,< 1000,10 to 1000,< 1000
"C[C@H](Oc1cc(-c2nn(C)c3c(-c4cnn(C5CCN(C(=O)C6CC7(C6)CN(c6cccc8c6C(=O)N(C6CCC(=O)NC6=O)C8=O)C7)CC5)c4)cnc(N)c23)ccc1NS(=O)(=O)C(F)F)c1ccc(F)cc1 (stereo partly drawn) [Compound 1074, N-(4-{4-amino-7-[1-(1-{2-[2-(2,6-dioxopiperidin-3-yl)-1,3-dioxo-2,3-dihydro-1H-isoindol-4-yl]-2-azaspiro[3.3]heptane-6-carbonyl}piperidin-4-yl)-1H-pyrazol-4-yl]-1-methyl-1H-pyrazolo[4,3-c]pyridin-3-yl}-2-[(1S)-1-(4-fluorophenyl)ethoxy]phenyl)-1,1-difluoromethanesulfonamide]",< 1000,< 1000,10 to 1000,< 1000

# Second part, led by results:
DC50 (endogenous MLKL in U937) [nM],DC50 (endogenous MLKL in MDF) [nM],Kd (human MLKL (full length)) [nM],SMILES,IC50 [1] [nM]
< 1000,1000 to 10000,< 10,"C[C@H](Oc1cc(-c2nn(C)c3c(-c4cnn(C5CCN(CCC6CCN(c7cccc8c7C(=O)N(C7CCC(=O)NC7=O)C8=O)CC6)CC5)c4)cnc(N)c23)ccc1NS(=O)(=O)C(F)F)c1ccc(F)cc1 (stereo partly drawn) [Compound 1076, N-[4-(4-amino-7-{1-[1-(2-{1-[2-(2,6-dioxopiperidin-3-yl)-1,3-dioxo-2,3-dihydro-1H-isoindol-4-yl]piperidin-4-yl}ethyl)piperidin-4-yl]-1H-pyrazol-4-yl}-1-methyl-1H-pyrazolo[4,3-c]pyridin-3-yl)-2-[(1S)-1-(4-fluorophenyl)ethoxy]phenyl]-1,1-difluoromethane-sulfonamide]",< 1000
1000 to 10000,1000 to 10000,< 10,"C[C@H](Oc1cc(-c2nn(C)c3c(-c4cnn(C5CCN(CCCC6CCN(c7cccc8c7C(=O)N(C7CCC(=O)NC7=O)C8=O)CC6)CC5)c4)cnc(N)c23)ccc1NS(=O)(=O)C(F)F)c1ccc(F)cc1 (stereo partly drawn) [Compound 1078, N-[4-(4-amino-7-{1-[1-(3-{1-[2-(2,6-dioxopiperidin-3-yl)-1,3-dioxo-2,3-dihydro-1H-isoindol-4-yl]piperidin-4-yl}propyl)piperidin-4-yl]-1H-pyrazol-4-yl}-1-methyl-1H-pyrazolo[4,3-c]pyridin-3-yl)-2-[(1S)-1-(4-fluorophenyl)ethoxy]phenyl]-1,1-difluoromethane-sulfonamide]",< 1000
< 1000,< 1000,< 10,"C[C@H](Oc1cc(-c2nn(C)c3c(-c4cnn(C5CCN(CC6CCN(c7cccc8c7C(=O)N(C7CCC(=O)NC7=O)C8=O)CC6)CC5)c4)cnc(N)c23)ccc1NS(=O)(=O)C(F)F)c1ccc(F)cc1 (stereo partly drawn) [Compound 1079, N-[4-(4-amino-7-{1-[1-({1-[2-(2,6-dioxopiperidin-3-yl)-1,3-dioxo-2,3-dihydro-1H-isoindol-4-yl]piperidin-4-yl}methyl)piperidin-4-yl]-1H-pyrazol-4-yl}-1-methyl-1H-pyrazolo[4,3-c]pyridin-3-yl)-2-[(1S)-1-(4-fluorophenyl)ethoxy]phenyl]-1,1-difluoromethane-sulfonamide]",< 1000
< 1000,< 1000,< 10,"C[C@H](Oc1cc(-c2nn(C)c3c(-c4cnn(C5CCN(C(=O)CC6CN(c7cccc8c7C(=O)N(C7CCC(=O)NC7=O)C8=O)CCO6)CC5)c4)cnc(N)c23)ccc1NS(=O)(=O)C(F)F)c1ccc(F)cc1 (stereo partly drawn) [Compound 1081, N-[4-(4-amino-7-{1-[1-(2-{4-[2-(2,6-dioxopiperidin-3-yl)-1,3-dioxo-2,3-dihydro-1H-isoindol-4-yl]morpholin-2-yl}acetyl)piperidin-4-yl]-1H-pyrazol-4-yl}-1-methyl-1H-pyrazolo[4,3-c]pyridin-3-yl)-2-[(1S)-1-(4-fluorophenyl)ethoxy]phenyl]-1,1-difluoromethanesulfonamide]",< 1000
< 1000,1000 to 10000,< 10,"C[C@H](Oc1cc(-c2nn(C)c3c(-c4cnn(C5CCN(C(=O)COc6cccc7c6C(=O)N(C6CCC(=O)NC6=O)C7=O)CC5)c4)cnc(N)c23)ccc1NS(=O)(=O)C(F)F)c1ccc(F)cc1 (stereo partly drawn) [Compound 1082, N-[4-(4-amino-7-{1-[1-(2-{[2-(2,6-dioxopiperidin-3-yl)-1,3-dioxo-2,3-dihydro-1H-isoindol-4-yl]oxy}acetyl)piperidin-4-yl]-1H-pyrazol-4-yl}-1-methyl-1H-pyrazolo[4,3-c]pyridin-3-yl)-^2-[(1S)-1-(4-fluorophenyl)ethoxy]phenyl]-1,1-difluoromethanesulfonamide]",1000 to 10000
< 1000,< 1000,< 10,"C[C@H](Oc1cc(-c2nn(C)c3c(-c4cnn(C5CCN(CC6CCN(c7cccc8c7C(=O)N(C7CCC(=O)NC7=O)C8=O)C6)CC5)c4)cnc(N)c23)ccc1NS(=O)(=O)C(F)F)c1ccc(F)cc1 (stereo partly drawn) [Compound 1083, N-[4-(4-amino-7-{1-[1-({1-[2-(2,6-dioxopiperidin-3-yl)-1,3-dioxo-2,3-dihydro-1H-isoindol-4-yl]pyrrolidin-3-yl}methyl)piperidin-4-yl]-1H-pyrazol-4-yl}-1-methyl-1H-pyrazolo[4,3-c]pyridin-3-yl}-2-[(1S)-1-(4-fluorophenyl)ethoxy]phenyl]-1,1-difluoromethanesulfonamide]",< 1000
